Key:
[1] = system: ulcer complication like bleeding from the stomach or the duodenum; conditions: cited from earlier work
[2] = system: gastric and/or duodenal ulcers in Helicobacter pylori-negative patients ≧60 years receiving ASA; test: randomized, multicenter, placebo-controlled trial of esomeprazole 20 mg once daily for 26 weeks in patients receiving ASA; type: in vivo, human
Description: Patients were randomized to receive either esomeprazole 20 mg (administered as esomeprazole magnesium, i.e. Nexium® owned by AstraZeneca AB) or placebo once daily for 26 weeks. The primary outcome variable was the presence of gastric and/or duodenal ulcers at endoscopy over the 26-week period. A total of 991 patients, all receiving ASA in doses varying between 75-325 mg/day (57.1% male, mean age 69.3 years, mean acetyl salicylic acid (ASA) dose 124.0 mg/day) were included in the intent-to-treat population. The cumulative proportion of patients without either gastric or duodenal ulcer at 26 weeks was 98.2% with esomeprazole, compared with 93.8% with placebo (life table estimates, p=0.0007). The incidence of gastric ulcers was lower in patients taking esomeprazole than in those taking placebo (1.2% vs. 3.8%), as was the incidence of duodenal ulcers (0.4% and 1.6% for esomeprazole and placebo, respectively). Eight patients (1.6%) had developed an ulcer, in the esomeprazole group by 6 months, compared with 27 patients (5.4%) in the placebo group. This corresponded to a relative reduction of developing an ulcer of 70% when taking esomeprazole rather than placebo. A total of 95.6% of patients treated with esomeprazole had no esophageal lesions at week 26, compared with 81.7% of patients treated with placebo (p<0.0001).

[3] = system: damages on the mucosa caused by ASA; conditions: concomitant administration for patients treated with ASA; cited from earlier work
[4] = esomeprazole 20 mg once daily, 26 weeks, patients on ASA

## CC(=O)Oc1ccccc1C(=O)O [ASA, acetyl salicylic acid]
[1]; daily dose as low as 75 mg (Weil et al)
  relative risk of developing an ulcer complication like bleeding from the stomach or the duodenum: doubles
[1]; epidemiological data from the UK (Pirmohamed et al)
  hospital admissions due to adverse drug reactions caused by ASA: 18%

## COc1ccc2nc([S@@+]([O-])Cc3ncc(C)c(OC)c3C)[nH]c2c1 [esomeprazole]
[2]; all symptoms, versus placebo
  resolution of investigator-assessed upper gastrointestinal symptoms: higher with esomeprazole than with placebo
[2]; by 6 months, versus placebo
  relative reduction of developing an ulcer when taking esomeprazole rather than placebo: 70%
[2]; esomeprazole 20 mg once daily for 26 weeks
  safety and tolerability: safe and well tolerated
[2]; [4]
  incidence of duodenal ulcers: 0.4%
  incidence of gastric ulcers: 1.2%
[2]; esomeprazole 20 mg once daily, patients on ASA, eight patients
  patients who had developed an ulcer by 6 months: 1.6%
[2]; patients with no lesions and those with Los Angeles grade A lesions at baseline, versus placebo
  proportion of patients without esophageal lesions at 6 months: higher with esomeprazole than with placebo

## Cc1c(OCC(F)(F)F)ccnc1C[S+]([O-])c1nc2ccccc2[nH]1 (stereo not shown) [lansoprazole]
[3]
  effect on damages on the mucosa caused by ASA: reduce damages on the mucosa caused by ASA

Reference: patent US20100178334A1, “Oral Pharmaceutical Dosage Form Comprising as Active Ingredients a Proton Pump Inhibitor together with Acetyl Salicyclic Acid” (priority 2005, published 2010)
